According to patent US20230263759A1, “PARENTERAL NUTRITION FORMULATION” (BAXTER INTERNATIONAL INC., priority 2020, published 2023):

Assays:
[1] = Stability of butyrate derivatives in PN compositions (sterilization, storage; GC-FID); assay type: physicochemical; details: for free butyric acid released in the lipid chamber during sterilization: after compounding and sterilization of the bags
Experimental: The concentration of arginine butyrate can be varied relatively broadly over the disclosed range.
Compositions used are described in Table 4 and Table 5. After compounding of the respective butyrate derivatives into the respective chambers of the bags and following sterilization, free butyric acid was measured in the lipid chamber (for tributyrin and DPBG compositions) and the butyrate content in the amino acid chamber was determined. […] In case of the amino acid chamber, the recovery of butyrate after sterilization corresponds to what was introduced. Accordingly, no deterioration of the salt occurred during or after sterilization. In addition, the stability of the composition over time (12 months, 25° C., 40% RH) was confirmed. The free butyric acid can be quantified by GC-FID, after sample preparation by liquid-liquid extraction of the lipid emulsion or directly from amino acid solution. These methods are known in the art.

[2] = tested on: cytokines Il-1β, Il-6, TNF-α, Il-8, Il-10; test: Cytokine quantification in jejunal and ileal samples; assay type: in vivo, pig; details: compared to standard PN (s-PN)
Experimental: Digestive Diseases and Sciences 2002; 47:2049-2055. Jejunal and ileal samples were homogenized in double-distilled water, and the Bradford protein assay (Biorad, Hercules, Calif., USA) was performed on homogenate and plasma samples. Protein (30 μg) from each sample was denatured by boiling, and proteins were separated by size using 12.5% sodium dodecyl sulfate polyacrylamide gel electrophoresis. Separated proteins were transferred to polyvinylidene difluoride membranes (Biorad) using a semidry transfer apparatus (Biorad). Western blot analysis for TNF-alpha, IL-1beta, Il-10 and IL-6 was performed using porcine-specific polyclonal antibodies (Endogen, Woburn, Mass., USA). A mouse anti-pig monoclonal TNF-alpha antibody was used to detect TNF-alpha ([…]) Rabbit anti-pig polyclonal antibodies specific for IL-1beta and IL-6 were used to detect IL-1beta ([…]), Il-10 ([…]) and IL-6 ([…]). Membranes were developed using the Opti-4CN kit (Biorad) and photographed using the FOTO/Analyst Image Analysis System (Fotodyne, Inc., Hart-land, Wisconsin, USA). Densitometry of TNF-alpha, IL-1beta, IL-6, and Il-10 was performed using Collage Image Analysis Software 4.0 (Fotodyne, Inc.). Results are shown in FIG. 15 (Il-6), FIG. 16 (Ill-beta), FIG. 17 (TNF-alpha) and FIG. 18 (Il-10).

sIgA = test: IgA quantification (sandwich ELISA of intestinal washings); assay type: in vivo, pig; details: 10 mmol/L; compared to standard PN (s-PN)
Experimental: Small intestine probes for IgA level determination were obtained by flushing the small intestine with chilled HBSS (Hank's Balanced Salt Solution). Nasal and bronchoalveolar washings for measurement of respiratory tract IgA levels were obtained by lavage with 1 mL phosphate-buffered saline solution under anesthesia. The washings were stored in a −80° C. freezer until IgA analysis. IgA was measured in small intestinal and respiratory tract washings by sandwich enzyme-linked immunosorbent assay using a polyclonal goat anti-mouse IgA (Sigma) to coat the plate, a purified mouse IgA (Zymed Laboratories, San Francisco, Calif.) as the standard, and a horseradish peroxidase-conjugated goat anti-mouse IgA (Sigma) Results are shown in FIG. 13.

[3] = tested on: metastatic colorectal cancer patients; details: aqueous solution, pH 7.7; phase I clinical trial; cited from earlier work

free butyric acid released in the lipid chamber during sterilization [1] | Compound | Ileal Cytokine Concentration (less pro-inflammatory cytokines Il-1β, Il-6, TNF-α) ([2]; 10 mmol/L) | Ileal Cytokine Concentration (more anti-inflammatory cytokines Il-8, Il-10) ([2]; 10 mmol/L) | Jejunal Cytokine Concentration (less pro-inflammatory cytokines Il-1β, Il-6, TNF-α) ([2]; 10 mmol/L) | Ileal Cytokine Concentration (less pro-inflammatory cytokines Il-1β, Il-6, TNF-α) ([2]; 30 mmol/L) | Jejunal Cytokine Concentration (less pro-inflammatory cytokines Il-1β, Il-6, TNF-α) ([2]; 30 mmol/L) | Jejunal Cytokine Concentration (more anti-inflammatory cytokines Il-8, Il-10) ([2]; 30 mmol/L) | shelf-life over which stable in the amino acid formulation ([1]; 25° C. and 40% relative humidity (RH), also stable during production, sterilization) | Jejunal sIgA Concentration (sIgA) | Jejunal Cytokine Concentration (more anti-inflammatory cytokines Il-8, Il-10) ([2]; 10 mmol/L) | tolerated dose [3] [g/kg/day]
only very limited amounts | CCCCCCCCCCCCCCCC(=O)OCC(COC(=O)CCC)OC(=O)CCCCCCCCCCCCCCC (stereo not drawn) [DPBG, 1,2-Dipalmitoyl 3-butyryl glycerol] |  |  |  |  |  |  |  |  |  | 
only very limited amounts | CCCC(=O)OCC(COC(=O)CCC)OC(=O)CCC [Tributyrin] | ++ (++ indicates P < 0.05) | + | +++ (+++ indicate P < 0.01) | ++ (++ indicates P < 0.05) | +++ (+++ indicate P < 0.01) | + |  |  |  | 
 | L-arginine, butanoate (3:4) [Arginine Butyrate] | +++ (+++ indicate P < 0.01) | +^4 | +++ (+++ indicate P < 0.01) |  |  |  | at least 12 months | +++^3 (+++ indicate P < 0.01) | ++ (++ indicates P < 0.05) | 3
